The values that follow come from patent publication US8796289B2 (AbbVie Inc., priority 2011, dated 2014).

For the first assay, the target named is GST-tagged-Wee1 kinase (Homo sapiens, UniProt P30291). In words: Wee1 time-resolved fluorescence equilibrium binding assay (displacement of Oregon Green-labeled ATP-competitive kinase probe).
Chain of GST-tagged-Wee1 kinase (P30291 whole entry): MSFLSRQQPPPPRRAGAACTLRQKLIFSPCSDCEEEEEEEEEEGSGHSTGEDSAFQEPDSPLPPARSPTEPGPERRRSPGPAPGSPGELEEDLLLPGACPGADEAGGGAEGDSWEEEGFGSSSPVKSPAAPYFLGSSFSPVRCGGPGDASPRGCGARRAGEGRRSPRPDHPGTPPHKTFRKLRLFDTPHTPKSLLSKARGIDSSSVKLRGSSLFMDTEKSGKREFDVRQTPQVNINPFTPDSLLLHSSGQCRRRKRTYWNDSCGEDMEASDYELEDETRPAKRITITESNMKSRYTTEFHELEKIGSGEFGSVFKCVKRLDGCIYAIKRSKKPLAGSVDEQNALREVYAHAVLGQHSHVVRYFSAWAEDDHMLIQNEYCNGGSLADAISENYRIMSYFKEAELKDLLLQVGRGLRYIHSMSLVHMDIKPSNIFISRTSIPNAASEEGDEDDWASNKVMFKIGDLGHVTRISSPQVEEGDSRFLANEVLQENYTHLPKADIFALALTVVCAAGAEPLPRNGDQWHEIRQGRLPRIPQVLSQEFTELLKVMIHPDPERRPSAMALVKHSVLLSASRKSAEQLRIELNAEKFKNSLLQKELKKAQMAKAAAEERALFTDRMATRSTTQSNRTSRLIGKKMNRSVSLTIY
Conditions: not given
On the procedure:
Wee1 kinase was assayed using a time-resolved fluorescence equilibrium binding assay monitoring displacement of a rapidly reversible Oregon Green-labeled ATP-competitive kinase probe (N-(2-(2-(2-(4-(4-(5-chloro-4-(2-(1-hydroxycyclobutyl)thiazol-5-yl)-1H-pyrrolo[2,3-b]pyridin-2-yl)phenyl)piperazin-1-yl)ethoxy)ethoxy)ethyl)-2′,7′-difluoro-3′,6′-dihydroxy-3-oxo-3H-spiro[isobenzofuran-1,9′-xanthene]-5-carboxamide) by competitive Wee1 inhibitors.
In turn, `Cc1nn(-c2ncccc2Cl)c(=O)c2cnc(Nc3ccc4c(c3)CC(N(C)C)C4)nc12` (centres unmarked) [Example 367, 6-(3-chloropyridin-2-yl)-2-{[2-(dimethylamino)-2,3-dihydro-1H-inden-5-yl]amino}-8-methylpyrimido[4,5-d]pyridazin-5(6H)-one] returned a Ki of 3.7 nM.

On to `Cc1cc(Nc2ncc3c(=O)n(-c4c(F)cccc4Cl)nc(C)c3n2)ccc1N1CCCN(C)CC1` [Example 368, 6-(2-chloro-6-fluorophenyl)-8-methyl-2-(3-methyl-4-(4-methyl-1,4-diazepan-1-yl)phenylamino)pyrimido[4,5-d]pyridazin-5(6H)-one], for which the Ki came out at 0.54 nM.

`Cc1cc(Nc2ncc3c(=O)n(-c4ncccc4Cl)nc(C)c3n2)ccc1N1CCCN(C)CC1` [Example 369, 6-(3-chloropyridin-2-yl)-8-methyl-2-(3-methyl-4-(4-methyl-1,4-diazepan-1-yl)phenylamino)pyridazino[4,5-d]pyrimidin-5(6H)-one]: the affinity, expressed as Ki, was 1.8 nM.

In turn, `Cc1nn(-c2c(Cl)cccc2Cl)c(=O)c2cnc(Nc3ccc4c(c3)CN(CC(F)(F)F)CC4(C)C)nc12` [Example 370, 6-(2,6-dichlorophenyl)-2-{[4,4-dimethyl-2-(2,2,2-trifluoroethyl)-1,2,3,4-tetrahydroisoquinolin-7-yl]amino}-8-methylpyrimido[4,5-d]pyridazin-5(6H)-one] returned a Ki of 35 nM.

Consider `Cn1cnc(-c2nn(-c3c(Cl)cncc3Cl)c(=O)c3cnc(Nc4ccc5c(c4)CNCC54CC4)nc23)c1` [Example 372, 6-(3,5-dichloropyridin-4-yl)-2-(2′,3′-dihydro-1′H-spiro[cyclopropane-1,4′-isoquinolin]-7′-ylamino)-8-(1-methyl-1H-imidazol-4-yl)pyrimido[4,5-d]pyridazin-5(6H)-one], for which the Ki came to 3.7 nM.

In turn, `Cn1cnc(-c2nn(-c3ccncc3Cl)c(=O)c3cnc(Nc4ccc5c(c4)CNCC54CC4)nc23)c1` [Example 373, 6-(3-chloropyridin-4-yl)-2-(2′,3′-dihydro-1′H-spiro[cyclopropane-1,4′-isoquinolin]-7′-ylamino)-8-(1-methyl-1H-imidazol-4-yl)pyrimido[4,5-d]pyridazin-5(6H)-one] displayed a Ki of 69 nM.

`CC(=O)N1CCN(c2ccc(Nc3ncc4c(=O)n(-c5c(Cl)cccc5Cl)nc(-c5ccccn5)c4n3)cc2)CC1` [Example 374, 2-{[4-(4-acetylpiperazin-1-yl)phenyl]amino}-6-(2,6-dichlorophenyl)-8-(pyridin-2-yl)pyrimido[4,5-d]pyridazin-5(6H)-one] showed a Ki of 0.67 nM.

The compound `CC(=O)N1Cc2cc(Nc3ncc4c(=O)n(-c5c(Cl)cccc5Cl)nc(-c5ccccn5)c4n3)ccc2C2(CC2)C1` [Example 375, 2-[(2′-acetyl-2′,3′-dihydro-1′H-spiro[cyclopropane-1,4′-isoquinolin]-7′-yl)amino]-6-(2,6-dichlorophenyl)-8-(pyridin-2-yl)pyrimido[4,5-d]pyridazin-5(6H)-one] gave a Ki of 1.2 nM.

In the case of `CS(=O)(=O)N1CCN(c2ccc(Nc3ncc4c(=O)n(-c5c(Cl)cccc5Cl)nc(-c5ccccn5)c4n3)cc2)CC1` [Example 376, 6-(2,6-dichlorophenyl)-2-({4-[4-(methylsulfonyl)piperazin-1-yl]phenyl}amino)-8-(pyridin-2-yl)pyrimido[4,5-d]pyridazin-5(6H)-one], the affinity, expressed as Ki, was 1.3 nM.

The compound `CS(=O)(=O)N1Cc2cc(Nc3ncc4c(=O)n(-c5c(Cl)cccc5Cl)nc(-c5ccccn5)c4n3)ccc2C2(CC2)C1` [Example 377, 6-(2,6-dichlorophenyl)-2-{[2′-(methylsulfonyl)-2′,3′-dihydro-1′H-spiro[cyclopropane-1,4′-isoquinolin]-7′-yl]amino}-8-(pyridin-2-yl)pyrimido[4,5-d]pyridazin-5(6H)-one] had a Ki of 1.3 nM.

As to `CC(=O)N1CCN(c2ccc(Nc3ncc4c(=O)n(-c5c(Cl)cccc5Cl)nc(-c5ccncc5)c4n3)cc2)CC1` [Example 378, 2-{[4-(4-acetylpiperazin-1-yl)phenyl]amino}-6-(2,6-dichlorophenyl)-8-(pyridin-4-yl)pyrimido[4,5-d]pyridazin-5(6H)-one], affinity was put at a Ki of 0.49 nM.

Compound `CC(=O)N1Cc2cc(Nc3ncc4c(=O)n(-c5c(Cl)cccc5Cl)nc(-c5ccncc5)c4n3)ccc2C2(CC2)C1` [Example 379, 2-[(2′-acetyl-2′,3′-dihydro-1′H-spiro[cyclopropane-1,4′-isoquinolin]-7′-yl)amino]-6-(2,6-dichlorophenyl)-8-(pyridin-4-yl)pyrimido[4,5-d]pyridazin-5(6H)-one] had a Ki of 0.45 nM.

Regarding `CS(=O)(=O)N1CCN(c2ccc(Nc3ncc4c(=O)n(-c5c(Cl)cccc5Cl)nc(-c5ccncc5)c4n3)cc2)CC1` [Example 380, 6-(2,6-dichlorophenyl)-2-({4-[4-(methylsulfonyl)piperazin-1-yl]phenyl}amino)-8-(pyridin-4-yl)pyrimido[4,5-d]pyridazin-5(6H)-one], the inhibition constant (Ki) came to 0.61 nM.

`CS(=O)(=O)N1Cc2cc(Nc3ncc4c(=O)n(-c5c(Cl)cccc5Cl)nc(-c5ccncc5)c4n3)ccc2C2(CC2)C1` [Example 381, 6-(2,6-dichlorophenyl)-2-{[2′-(methylsulfonyl)-2′,3′-dihydro-1′H-spiro[cyclopropane-1,4′-isoquinolin]-7′-yl]amino}-8-(pyridin-4-yl)pyrimido[4,5-d]pyridazin-5(6H)-one]: the affinity corresponds to a Ki of 0.81 nM.

As for `CN1CCN(c2ccc(Nc3ncc4c(=O)n(-c5ccncc5Cl)nc(-c5ccncc5)c4n3)cc2)CC1` [Example 382, 6-(3-chloropyridin-4-yl)-2-{[4-(4-methylpiperazin-1-yl)phenyl]amino}-8-(pyridin-4-yl)pyrimido[4,5-d]pyridazin-5(6H)-one], the affinity, expressed as Ki, was 7.6 nM.

On to `O=c1c2cnc(Nc3ccc4c(c3)CNCC43CC3)nc2c(-c2ccncc2)nn1-c1ccncc1Cl` [Example 383, 6-(3-chloropyridin-4-yl)-2-(2′,3′-dihydro-1′H-spiro[cyclopropane-1,4′-isoquinolin]-7′-ylamino)-8-(pyridin-4-yl)pyrimido[4,5-d]pyridazin-5(6H)-one], for which affinity was put at a Ki of 1.1 nM.

The compound `CN1CCN(c2ccc(Nc3ncc4c(=O)n(-c5ccncc5Cl)nc(-c5ccccn5)c4n3)cc2)CC1` [Example 384, 6-(3-chloropyridin-4-yl)-2-{[4-(4-methylpiperazin-1-yl)phenyl]amino}-8-(pyridin-2-yl)pyrimido[4,5-d]pyridazin-5(6H)-one] showed a Ki of 13 nM.

The compound `O=c1c2cnc(Nc3ccc4c(c3)CNCC43CC3)nc2c(-c2ccccn2)nn1-c1ccncc1Cl` [Example 385, 6-(3-chloropyridin-4-yl)-2-(2′,3′-dihydro-1′H-spiro[cyclopropane-1,4′-isoquinolin]-7′-ylamino)-8-(pyridin-2-yl)pyrimido[4,5-d]pyridazin-5(6H)-one] had a Ki of 7.2 nM.

`CN1CCN(c2ccc(Nc3ncc4c(=O)n(-c5c(Cl)cccc5Cl)nc(C5CC5)c4n3)cc2)CC1` [Example 386, 8-cyclopropyl-6-(2,6-dichlorophenyl)-2-{[4-(4-methylpiperazin-1-yl)phenyl]amino}pyrimido[4,5-d]pyridazin-5(6H)-one]: affinity was put at a Ki of 0.48 nM.

`CCc1nn(-c2c(Cl)cccc2Cl)c(=O)c2cnc(Nc3ccc(N4CCN(C)CC4)cc3)nc12` [Example 388, 6-(2,6-dichlorophenyl)-8-ethyl-2-{[4-(4-methylpiperazin-1-yl)phenyl]amino}pyrimido[4,5-d]pyridazin-5(6H)-one]: the Ki came to 0.33 nM.

The compound `CN1Cc2cc(Nc3ncc4c(=O)n(-c5c(Cl)cccc5Cl)nc(C5CC5)c4n3)ccc2C2(CC2)C1` [Example 389, 8-cyclopropyl-6-(2,6-dichlorophenyl)-2-[(2′-methyl-2′,3′-dihydro-1′H-spiro[cyclopropane-1,4′-isoquinolin]-7′-yl)amino]pyrimido[4,5-d]pyridazin-5(6H)-one] had a Ki of 0.28 nM.

As to `O=c1c2cnc(Nc3ccc4c(c3)CNCC4)nc2c(C2CC2)nn1-c1c(Cl)cccc1Cl` [Example 390, 8-cyclopropyl-6-(2,6-dichlorophenyl)-2-(1,2,3,4-tetrahydroisoquinolin-7-ylamino)pyrimido[4,5-d]pyridazin-5(6H)-one], the Ki came out at 0.41 nM.

Consider `O=c1c2cnc(Nc3ccc4c(c3)CNCC43CC3)nc2c(C2CC2)nn1-c1c(Cl)cccc1Cl` [Example 391, 8-cyclopropyl-6-(2,6-dichlorophenyl)-2-(2′,3′-dihydro-1′H-spiro[cyclopropane-1,4′-isoquinolin]-7′-ylamino)pyrimido[4,5-d]pyridazin-5(6H)-one], for which affinity was put at a Ki of 0.93 nM.

Compound `O=c1c2cnc(Nc3ccc(N4CCNCC4)cc3)nc2c(C2CC2)nn1-c1c(Cl)cccc1Cl` [Example 392, 8-cyclopropyl-6-(2,6-dichlorophenyl)-2-{[4-(piperazin-1-yl)phenyl]amino}pyrimido[4,5-d]pyridazin-5(6H)-one] displayed a Ki of 0.27 nM.

`Cc1nn(-c2c(Cl)cccc2Cl)c(=O)c2cnc(Nc3ccc(N4CCNCC4)cc3)nc12` [Example 393, 6-(2,6-dichlorophenyl)-8-methyl-2-{[4-(piperazin-1-yl)phenyl]amino}pyrimido[4,5-d]pyridazin-5(6H)-one] registered a Ki of 1 nM.

In the case of `Cc1nn(-c2c(F)cccc2Cl)c(=O)c2cnc(Nc3ccc(N4CCNCC4)cc3)nc12` [Example 396, 6-(2-chloro-6-fluorophenyl)-8-methyl-2-{[4-(piperazin-1-yl)phenyl]amino}pyrimido[4,5-d]pyridazin-5(6H)-one], the affinity corresponds to a Ki of 1 nM.

`Cc1nn(-c2c(Cl)cccc2Cl)c(=O)c2cnc(Nc3ccc4c(c3)CC(N(C)C)C4)nc12` (centres unmarked) [Example 397, 6-(2,6-dichlorophenyl)-2-{[2-(dimethylamino)-2,3-dihydro-1H-inden-5-yl]amino}-8-methylpyrimido[4,5-d]pyridazin-5(6H)-one] had a Ki of 1 nM.

The assay is the same for the next values; noted with them: read-out: Wee-1 inhibition Ki.
Regarding `Cc1nn(-c2c(Cl)cccc2Cl)c(=O)c2cnc(Nc3ccc4c(c3)CNCC4)nc12` [Example 371], the Ki was determined as 0.2 nM.

In the case of `Cc1nn(-c2c(Cl)cccc2Cl)c(=O)c2cnc(Nc3ccc4c(c3)CNCC4)nc12` [Example 395], the Ki was 1 nM.
